From the NIST ThermoML archive (doi:10.1021/je5005752)

Test: xn = mol fraction of the nth substance listed
Settings: 101 kPa, Liquid; for viscosity: Falling or rolling sphere viscometry; for mass density: Vibrating tube method

CCCC(=O)OCC [ethyl butanoate] + CC(C)CO
Settings	mass density [kg/m3]	viscosity [mPa·s]
288.15 K, x1 = 0.1	816.01	2.899
288.15 K, x1 = 0.2001	825.5	2
288.15 K, x1 = 0.3001	834.2	1.516
288.15 K, x1 = 0.3999	842.57	1.24
288.15 K, x1 = 0.5	850.43	1.057
288.15 K, x1 = 0.5999	857.77	0.9319
288.15 K, x1 = 0.7001	864.75	0.8287
288.15 K, x1 = 0.8001	871.45	0.785
288.15 K, x1 = 0.8997	877.93	0.7449
288.15 K, x1 = 1	884.16	0.7224
293.15 K, x1 = 0.1	811.92	2.51
293.15 K, x1 = 0.2001	821.21	1.768
293.15 K, x1 = 0.3001	829.72	1.363
293.15 K, x1 = 0.3999	837.92	1.129
293.15 K, x1 = 0.5	845.64	0.9727
293.15 K, x1 = 0.5999	852.86	0.8638
293.15 K, x1 = 0.7001	859.73	0.7883
293.15 K, x1 = 0.8001	866.33	0.7356
293.15 K, x1 = 0.8997	872.73	0.7006
293.15 K, x1 = 1	878.9	0.6808
298.15 K, x1 = 0.1	807.82	2.19
298.15 K, x1 = 0.2001	816.89	1.571
298.15 K, x1 = 0.3001	825.21	1.233
298.15 K, x1 = 0.3999	833.26	1.032
298.15 K, x1 = 0.5	840.84	0.8977
298.15 K, x1 = 0.5999	847.92	0.8022
298.15 K, x1 = 0.7001	854.69	0.7366
298.15 K, x1 = 0.8001	861.2	0.6907
298.15 K, x1 = 0.8997	867.52	0.6599
298.15 K, x1 = 1	873.62	0.643
303.15 K, x1 = 0.1	803.67	1.92
303.15 K, x1 = 0.2001	812.54	1.406
303.15 K, x1 = 0.3001	820.68	1.118
303.15 K, x1 = 0.3999	828.56	0.9462
303.15 K, x1 = 0.5	836	0.8309
303.15 K, x1 = 0.5999	842.97	0.7472
303.15 K, x1 = 0.7001	849.63	0.6895
303.15 K, x1 = 0.8001	856.05	0.6488
303.15 K, x1 = 0.8997	862.29	0.6217
303.15 K, x1 = 1	868.33	0.6072
308.15 K, x1 = 0.1	799.49	1.693
308.15 K, x1 = 0.2001	808.15	1.262
308.15 K, x1 = 0.3001	816.12	1.018
308.15 K, x1 = 0.3999	823.84	0.8702
308.15 K, x1 = 0.5	831.14	0.7709
308.15 K, x1 = 0.5999	837.99	0.6967
308.15 K, x1 = 0.7001	844.55	0.6458
308.15 K, x1 = 0.8001	850.88	0.6101
308.15 K, x1 = 0.8997	857.04	0.5862
308.15 K, x1 = 1	863.02	0.5736
313.15 K, x1 = 0.1	795.27	1.501
313.15 K, x1 = 0.2001	803.72	1.137
313.15 K, x1 = 0.3001	811.51	0.9295
313.15 K, x1 = 0.3999	819.09	0.8021
313.15 K, x1 = 0.5	826.25	0.7166
313.15 K, x1 = 0.5999	832.98	0.6507
313.15 K, x1 = 0.7001	839.44	0.6059
313.15 K, x1 = 0.8001	845.69	0.5742
313.15 K, x1 = 0.8997	851.78	0.5531
313.15 K, x1 = 1	857.7	0.5425
318.15 K, x1 = 0.1	791	1.337
318.15 K, x1 = 0.2001	799.25	1.029
318.15 K, x1 = 0.3001	806.87	0.8513
318.15 K, x1 = 0.3999	814.29	0.7413
318.15 K, x1 = 0.5	821.33	0.6676
318.15 K, x1 = 0.5999	827.95	0.6086
318.15 K, x1 = 0.7001	834.31	0.569
318.15 K, x1 = 0.8001	840.47	0.5409
318.15 K, x1 = 0.8997	846.5	0.5224
318.15 K, x1 = 1	852.36	0.5132
323.15 K, x1 = 0.1	786.67	1.219
323.15 K, x1 = 0.2001	794.73	0.9403
323.15 K, x1 = 0.3001	802.18	0.785
323.15 K, x1 = 0.3999	809.46	0.6914
323.15 K, x1 = 0.5	816.36	0.6257
323.15 K, x1 = 0.5999	822.87	0.5716
323.15 K, x1 = 0.7001	829.14	0.5382
323.15 K, x1 = 0.8001	835.23	0.5126
323.15 K, x1 = 0.8997	841.18	0.4958
323.15 K, x1 = 1	847	0.487
